Patent US10500226B2, “Alginate compositions and uses thereof” (Hadasit Medical Research Services and Development Ltd., priority 2012, dated 2019)

Test system: serum ALT (alanine aminotransferase)
Experiment: Concanavalin A mouse model: serum ALT
Type: in vivo, C57BL/6 (B6) mice
Text: Injection of the T-cell mitogenic plant lectin concanavalin A (Con A) to non-sensitized mice results in hepatic apoptosis that precedes necrosis. The concanvalin A (Con A) model is a widely utilized mouse model, which mimics many aspects of human autoimmune hepatitis. It induces a massive liver necrosis in mice, simultaneously with lymphocyte infiltration into the liver, high levels of apoptotic hepatocytes and elevated serum alanine aminotransferase (ALT) and aspartate aminotransferase (AST). The liver injury is mediated by natural killer T (NKT) cells. Several apoptosis-related effector molecules, IFN-γ and TNF-α take part in the NKT cell-mediated liver injury. The immune-mediated liver injury which develops in the Con A model is very rapid, taking less than 48 hours. The peak for liver enzymes and pro-inflammtory cytokines is after less than 15 hours, making the model particularly useful for screening anti-inflammatory agents.
Tested solutions were administered intraperitoneally by injection of a volume of 200 μl per mouse or by administration per os of 250 μl per mouse, 1 hour before concanavalin A (Con A) administration. Saline (0.15 M NaCl) served as a negative control test solution.
Con A was dissolved at a concentration of 16 mg/kg in 200 μl of 50 mM Tris (pH 7), with 150 mM NaCl, and 4 mM CaCl2, and injected (at a dose of 0.4 mg/mouse) intravenously into the tail vein of mice. Sera from individual mice were obtained 6, 24 and 48 hours (14 hours in some experiments) after Con A injection. All mice were sacrificed after 48 hours (14 hours in some experiments).
Serum albumin levels after 48 hours were measured by an automatic analyzer.
The solutions were administered intraperitoneally to adult male C57BL mice at a dose of 200 μl per mouse. One hour later, the mice were challenged with an intravenous injection of concanavalin A (Con A), as described hereinabove. […] Each treatment group contained 4-5 mice. Serum levels of ALT, albumin, and the pro-inflammatory cytokines IL-6 and interferon-γ (IFNγ) were determined as described hereinabove.

C[C@@H]1C[C@H]2[C@@H]3CCC4=CC(=O)C=C[C@]4(C)[C@@]3(F)[C@@H](O)C[C@]2(C)[C@@]1(O)C(=O)CO [Dexamethasone]
serum ALT levels (2% solutions i.p., 14 hours after Con A administration): 203±14 units/liter | Serum levels of ALT (Table 3, 200 μl i.p. 1 hour before Con A (dexamethasone per os), 6 hours after Con A): 146 ± 50 units/liter | Serum levels of ALT (Table 3, 200 μl i.p. 1 hour before Con A (dexamethasone per os), 24 hours after Con A): 162 ± 50 units/liter | Serum levels of ALT (Table 3, 200 μl i.p. 1 hour before Con A (dexamethasone per os), 48 hours after Con A): 69 ± 19 units/liter | Serum levels of ALT (Table 4 (hyaluronan comparison), i.p. before Con A, 6 hours after Con A): 83 ± 21 units/liter | Serum levels of ALT (Table 4 (hyaluronan comparison), i.p. before Con A, 24 hours after Con A): 68 ± 4 units/liter | Serum levels of ALT (Table 4 (hyaluronan comparison), i.p. before Con A, 48 hours after Con A): 76 ± 23 units/liter | Serum levels of ALT (Table 5 (biotinylated alginate, 2%), before Con A, 6 hours after Con A): 74 ± 5 units/liter | Serum levels of ALT (Table 5 (biotinylated alginate, 2%), before Con A, 24 hours after Con A): 62 ± 14 units/liter | Serum levels of ALT (Table 5 (biotinylated alginate, 2%), before Con A, 48 hours after Con A): 65 ± 16 units/liter | Serum levels of ALT (Table 6 (γ-irradiated alginate comparison), 6 hours after Con A): 28 ± 10 units/liter | Serum levels of ALT (Table 6 (γ-irradiated alginate comparison), 24 hours after Con A): 126 ± 37 units/liter | Serum levels of ALT (Table 6 (γ-irradiated alginate comparison), 48 hours after Con A): 68 ± 7 units/liter | Serum levels of ALT (Table 7, per os 250 μl 1 hour before Con A, 6 hours after Con A): 46 ± 6 units/liter | Serum levels of ALT (Table 7, per os 250 μl 1 hour before Con A, 24 hours after Con A): 65 ± 10 units/liter | Serum levels of ALT (Table 7, per os 250 μl 1 hour before Con A, 48 hours after Con A): 139 ± 26 units/liter | Serum levels of ALT (Table 8, per os, repeat with other alginates, 6 hours after Con A): 33 ± 12 units/liter | Serum levels of ALT (Table 8, per os, repeat with other alginates, 24 hours after Con A): 37 ± 10 units/liter | Serum levels of ALT (Table 8, per os, repeat with other alginates, 48 hours after Con A): 31 ± 5 units/liter
